# In patent US20250020667A1, “DEVELOPMENT OF MICROBIAL BIOSENSORS FOR INTESTINAL INFLAMMATION” (Baylor College of Medicine, priority 2017, published 2025):
# Where a name gives a salt, the structure may show the parent alone.
# B1: calprotectin: neutrophil-source antimicrobial peptide heterodimer that sequesters zinc, manganese and iron; recombinant human, supplied by Dr. Walter Chazin (protein, UniProt P05109 1-93; P06702 1-114, looked up)
# Protein S100-A8: MLTELEKALNSIIDVYHKYSLIKGNFHAVYRDDLKKLLETECPQYIRKKGADVWFKELDINTDGAVNFQEFLILVIKMGVAAHKKSHEESHKE
# Protein S100-A9: MTCKMSQLERNIETIINTFHQYSVKLGHPDTLNQGEFKELVRKDLQNFLKKENKNEKVIEHIMEDLDTNADKQLSFEEFIMLMARLTWASHEKMHEGDEGPGHHHKPGLGEGTP
# Legend:
# [1] = test system: E. coli Nissle L36/L31 ribosomal accessory protein promoter (ykgMO) GFP biosensor; assay: Induction of promoter-GFP biosensor, GFP by flow cytometry; format: cell-based, Escherichia coli
# Excerpt: (§1) Initial Data. […] Sequences were obtained via Illumina NextSeq and mapped against E. coli Nissle 1917 reference genome.
# (§2) Initial test constructs consisted of the intergenic promoter regions for the following genes: E. coli Nissle—sulA, entCE (enterobactin synthase operon), ykgMO (paralog for L36/L31 ribosomal accessory protein), ABC Transporter (WP_000977398.1); L. reuteri—ABC Transporter operon (EGC15836.1), Acyl carrier protein dehydratase (EGC15031.1), argininosuccinate lyase (EGC15288.1). Each promoter region was cloned directly upstream of a green fluorescent protein cassette. For L. reuteri, the eGFP cassette was used while the sGFP cassette was used for E. coli. All constructs were assembled via the Gibson Reaction (NEBiosciences).
# [2] = test system: E. coli Nissle enterobactin synthase promoter GFP biosensor; assay: as above; format: cell-based, Escherichia coli
# Excerpt: as §1, §2
# [3] = test system: L. reuteri acyl carrier protein dehydratase promoter GFP biosensor; assay: as above; format: cell-based, Lactobacillus reuteri; conditions: co-cultured with TPEN vs uninduced sensor
# Description: All constructs were assembled via the Gibson Reaction (NEBiosciences).
# All flow runs were performed in 96 well plates.
# TPEN Induction—TPEN, a synthetic zinc chelator, induction assays were performed as calprotectin induction, with TPEN replacing calprotectin. Growth condition were also identical. Media ratios differed. In the TPEN studies, 180 uL of media was used with 20 uL cells and 2 uL of TPEN in absolute ethanol.
# [4] = test system: L. reuteri ABC transporter promoter GFP biosensor; assay: Metal complementation assay (metal added to sensors co-cultured with calprotectin); format: cell-based, Lactobacillus reuteri
# Description: Metal complementation assays—Mixes were similar to the calprotectin induction assays with the addition of zinc (II) sulfate, manganese (II) sulfate, or iron (II) chloride. Concentrations of metals were added in excess of 1×, 10×, and 100× the binding capacity of 40 ug/mL (1.4 uM) calprotectin. In total, 0, 4 uM, 40 uM, and 400 uM of zinc and iron were added and 0, 2 uM, 20 uM, and 200 uM of manganese was added. Slightly higher than equimolar amounts were added to correct for possible pipetting error. Cells were grown for the same amount of time as in the calprotectin induction assays.
# Flow cytometry—˜10-40 uL of cells were added to 1 mL of PBS sheath fluid and run through the flow cytometer for a total of 10000 events. Cells were thresholded by forward/side scatter, and.fsc files were analyzed with the FlowCal software, developed by the Jeff Tabor Lab. In short, FlowCal identifies the densest region of cells on the associated scatterplot, and analyzes the fluorescent output of 30% of the cells in this region so as to evaluate a homogenous dataset and remove possible outliers. […] In this case, GFP output is reported as molecules of equivalent fluorophores (MEF), and was evaluated on the FL1 channel.
# [5] = test system: E. coli Nissle L36/L31 ribosomal accessory protein promoter GFP biosensor; conditions: sensors co-cultured with calprotectin
# [6] = test system: E. coli Nissle enterobactin synthase promoter GFP biosensor
# [7] = test system: L. reuteri acyl carrier protein dehydratase promoter GFP biosensor; conditions: co-cultured with 40 ug/mL calprotectin
# [8] = test system: Lactobacillus reuteri ABC transporter promoter GFP sensor; conditions: 40 ug/mL calprotectin vs uninduced sensor
# Excerpt: as §2
# [9] = test system: Escherichia coli Nissle 1917; assay: Minimum inhibitory concentration (MIC) assay, overnight growth, OD600; format: cell-based; conditions: E. coli Nissle
# Description: (§3) Minimum inhibitory concentration (MIC) assay—Escherichia coli Nissle 1917 and Lactobacillus reuteri PTA 6475 were used as vectors for biosensor construction. For both strains, bacteria was grown overnight in media (MRS broth for L. reuteri; LB broth for E. coli). From the overnight culture, 10^4 bacterial cells in 38 uL media (LDM4 for L. reuteri; LB broth for E. coli) were seeded into a 96 well-plate. 62 uL of calprotectin in buffer (20 mM Tris (pH 7.5), 100 mM NaCl, 10 mM beta-mercaptoethanol, 3 mM CaCl2) was added in 2-fold dilutions. Recombinant human calprotectin was supplied by Dr. Walter Chazin of Vanderbilt University. Bacteria was allowed to grow overnight, and OD600 values were taken the following morning.
# (§4) RNA Isolation—Sub-inhibitory concentrations of calprotectin were used for the calprotectin induction. […] Cells were grown overnight, and then back-diluted 1:100 into 5 mL of media (LDM4 for L. reuteri; LB Broth for E. coli). Cells were grown up to log phase, and then the sub-inhibitory amount of calprotectin was added to the tube in calprotectin buffer. Growth continued for 30 total minutes in the presence of the calprotectin, and then transcription was frozen by addition of ice cold methanol for L. reuteri and ice-cold ethanol for E. coli Nissle. Cells were collected via centrifugation, and then RNA was isolated using the QIAgen RNEasy kit. Slight modifications were included. For L. reuteri, mechanical cell-wall disruption was used via bead-beating. For E. coli, lysozyme/proteinase K was used to disrupt the gram-negative cell wall. RNA was quantified and tested for purity using a Nanodrop.
# (§5) Both prospective vector strains (Lactobacillus reuteri and Escherichia coli Nissle) were grown overnight in the presence of 2-fold dilutions of calprotectin in order to deduce minimum inhibitory concentrations of calprotectin on the microbes.
# [10] = test system: Lactobacillus reuteri PTA 6475; assay: as above; format: cell-based; conditions: L. reuteri
# Description: as §3, §4, §5
# [11] = co-cultured with 1.5 uM TPEN vs media only
# [12] = co-cultured with 40 ug/mL calprotectin
# [13] = 40 ug/mL calprotectin vs un-induced
# [14] = overnight growth, 2-fold dilutions
molecule,measurement,setting,value
"c1ccc(CN(CCN(Cc2ccccn2)Cc2ccccn2)Cc2ccccn2)nc1 [TPEN, N,N,N′,N′-tetrakis(2-pyridinylmethyl)-1,2-ethanediamine]",fold increase in GFP expression,[1]; [11],4.5 fold
same,fold increase in GFP expression,[2]; [11],5.6 fold
same,fold increase in GFP expression,[3],2.5 fold
"[Cl][Fe][Cl] [iron, iron (II) chloride]",iron excess required to turn off promoter activity,"[4]; × the binding capacity of 40 ug/mL calprotectin, possibly a cell survival issue",100 ×
"O=S(=O)([O-])[O-].[Mn+2] [manganese, manganese (II) sulfate]",effect of added manganese on sensor activity,[4]; manganese at 100× binding capacity of 40 ug/mL calprotectin,did not fully ablate sensor activity
"[Zn+2] [zinc, zinc (II) sulfate]",effect of added zinc on calprotectin-induced increase in GFP expression,[5],abolishes the calprotectin-induced increase in GFP expression
same,zinc concentration sufficient to totally abolish promoter activity,[6]; [12],4 µM
same,effect of added zinc on calprotectin-induced increase in GFP expression,[6]; sensors co-cultured with calprotectin,abolishes the calprotectin-induced increase in GFP expression
same,zinc concentration sufficient to totally abolish promoter activity,[7],4 µM
same,zinc concentration sufficient to totally abolish promoter activity,[4]; [12],4 µM
B1,fold increase in GFP expression,[1]; [13],2.6 fold
same,fold increase in GFP expression,[2]; [13],1.8 fold
same,fold increase in GFP expression,[8],4.93 fold
same,highest concentration that did not inhibit overnight growth (sub-inhibitory concentration),[9],125 µg/mL
same,minimum inhibitory concentration (growth inhibited at this concentration and above),[9]; [14],250 µg/mL
same,highest concentration that did not inhibit overnight growth (sub-inhibitory concentration),[10],15.625 µg/mL
same,minimum inhibitory concentration (growth inhibited at this concentration and above),[10]; [14],31.25 µg/mL
